Source: patent US8445240B2, “Termite enzymes and uses thereof for in vitro conversion of lignin-containing materials to fermentable products” (University of Florida Research Foundation, Inc., priority 2009, dated 2013)
Several values for one entry are separate records, joined by “and”; a condition that tells them apart may be missing. Identical values can stand only once. Like-named read-outs stand apart in the source and are kept apart here. One block for each molecule: values may come before it.

Legend:
[1] = target: RfLacA (Reticulitermes flavipes, UniProt D0E8H0); assay: RfLacA substrate specificity and kinetic parameters
RfLacA, sequence (D0E8H0 entry or part of it): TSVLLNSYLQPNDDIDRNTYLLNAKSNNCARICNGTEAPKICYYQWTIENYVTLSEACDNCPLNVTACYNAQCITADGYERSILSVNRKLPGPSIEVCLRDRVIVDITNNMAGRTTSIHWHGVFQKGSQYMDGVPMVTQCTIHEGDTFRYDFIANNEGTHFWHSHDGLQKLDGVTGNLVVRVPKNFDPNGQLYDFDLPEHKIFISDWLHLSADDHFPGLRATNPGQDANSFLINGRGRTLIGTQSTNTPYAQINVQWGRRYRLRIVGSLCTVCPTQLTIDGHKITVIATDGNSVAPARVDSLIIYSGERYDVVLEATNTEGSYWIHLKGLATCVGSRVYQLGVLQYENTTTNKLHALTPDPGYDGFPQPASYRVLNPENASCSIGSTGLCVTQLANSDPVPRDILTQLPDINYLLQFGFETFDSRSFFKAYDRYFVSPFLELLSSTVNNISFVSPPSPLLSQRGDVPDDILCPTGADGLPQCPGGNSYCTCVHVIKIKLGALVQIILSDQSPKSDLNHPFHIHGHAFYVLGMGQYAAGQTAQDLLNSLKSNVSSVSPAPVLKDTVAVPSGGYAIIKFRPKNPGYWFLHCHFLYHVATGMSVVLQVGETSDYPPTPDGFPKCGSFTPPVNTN

[2] = target: T1, recombinant RfBGluc-1 β-glucosidase (Reticulitermes flavipes, UniProt D9ILU1); assay: Activity of recombinant RfBGluc-1 towards natural substrates, endpoint glucose detection assay; type: biochemical
T1 sequence (D9ILU1 18-495): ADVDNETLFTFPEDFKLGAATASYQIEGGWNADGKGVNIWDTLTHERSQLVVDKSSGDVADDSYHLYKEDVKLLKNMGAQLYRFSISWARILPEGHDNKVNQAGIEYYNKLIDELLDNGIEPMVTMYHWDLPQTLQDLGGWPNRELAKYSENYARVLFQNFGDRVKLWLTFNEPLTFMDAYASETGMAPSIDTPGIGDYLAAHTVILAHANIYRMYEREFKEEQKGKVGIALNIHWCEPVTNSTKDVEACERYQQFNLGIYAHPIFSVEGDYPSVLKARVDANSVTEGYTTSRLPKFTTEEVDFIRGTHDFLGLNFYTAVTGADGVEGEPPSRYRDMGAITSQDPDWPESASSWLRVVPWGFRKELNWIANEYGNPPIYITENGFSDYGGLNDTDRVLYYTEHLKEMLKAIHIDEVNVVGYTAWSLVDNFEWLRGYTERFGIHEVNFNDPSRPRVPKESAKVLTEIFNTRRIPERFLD
Protocol: Natural carbohydrate substrates (Table 2) were tested in endpoint assays in which color development was enabled using 439-90901 glucose-mutarose detection reagent (Wako Chemical; Richmond, Va.). Assays were conducted in 125 μL for 5 min at room temperature as described above and stopped with the addition of 125 μL glucose detection reagent. After 1 min, the absorbance was read at 505 nm.

[3] = test system: Cell-1; conditions: for effect on Cell-1 temperature stability: pre-incubation at 60° C. and 70° C., 0-60 min
Protocol: Thermal stability tests were conducted using 1.5% CMC in 100 mM sodium phosphate at the optimal pH of 7. Temperature-cofactor studies were performed using 1.5% CMC dissolved in 100 mM sodium phosphate (pH 7) alone, plus 4 mM EDTA (final concentration), or plus 10 mM calcium chloride (final concentration). Pre-incubations took place for 0-5 days at 25° C. or 0-60 min at 60° C. or 70° C.; reactions were terminated by the combination of adding stop solution and boiling for 10 min, and then assays were read at 25° C.
Calcium as a cofactor in β-1,4-endoglucanase Cell-1 hydrolytic activity and temperature stability: The effects of calcium on recombinant Cell-1 activity were investigated using calcium chloride as a calcium source and EDTA as a potential calcium chelator.

[4] = target: T1, recombinant RfBGluc-1 β-glucosidase; assay: Activity of recombinant RfBGluc-1 towards synthetic nitrophenol substrates, kinetic microplate assay; type: biochemical; conditions: percent activity rankings based on Vmax; pNP-βD-Glucopyranoside = 100
Protocol: All initial characterization assays took place in 0.1 M sodium acetate buffer (pH 6) using 2 μL of recombinant enzyme preparation (=1.58 μg protein per assay) in a total reaction volume of 250 μL. Synthetic p-nitrophenol substrates (Table 1) were tested in direct kinetic assays using a microplate reader. Reactions were initiated by adding 248 μL assay buffer to 2 μL protein. Assays were read at 420 nm every 20 sec for 5 min to yield mean velocity data in mOD/min. Specific activity was determined with the p-nitrophenol extinction coefficient of 0.6605 mM^−1 cm^−1. All results were averaged from three independent replicates, each conducted in triplicate.

[5] = Recombinant Cell-3 exoglucanase activity in unpurified form; type: biochemical; conditions: for activity toward pNPC relative to uninfected control larvae: homogenates of infected larvae
Excerpt: Recombinant Cell-3 characterization: The recombinant Cell-3 protein (nucleotide sequence SEQ ID NO.: 3; amino acid sequence SEQ ID NO.: 4) was investigated in unpurified form. […] Other experiments investigating activity in crude homogenates over time and after repeated freeze-thaw cycles further verified reduced Cell-3 stability.

[6] = Characterisation of recombinant RfLacA and RfLacB isoforms; type: biochemical
[7] = RfLacA, 1 mM substrate, hydroquinone = 100

Optimal pH ([1]; RfLacA, per substrate): 7.5 | Specific Activity at 1 mM [S] ([1]; RfLacA, 1 mM substrate): 2.146 nmol·min/mg | Relative Activity (%) [1, 7]: 25.63%
Molecule: COc1cccc(OC)c1O [2,6-DMP, 2,6-dimethoxyphenol]

Molecule: Oc1ccc(O)cc1 [Hydroquinone]
Optimal pH [1]: 7 | Relative Activity (%) [1]: 100.00% | Specific Activity at 1 mM [S] [1]: 8.373 nmol·min/mg | Apparent Vmax ([1]; RfLacA, footnote: maximal specific activities in nmol/min/mg): 0.824 μm min^−1

Optimal pH ([1]; RfLacA, per substrate): 6.0 and 7.5 | Specific Activity at 1 mM [S] ([1]; RfLacA, 1 mM substrate): 0.676 nmol·min/mg | Relative Activity (%) [1, 7]: 8.07%
Molecule: N[C@@H](Cc1ccc(O)c(O)c1)C(=O)O [L-DOPA]

Molecule: OC[C@H]1O[C@@H](O[C@H]2[C@H](O)[C@@H](CO)OC(O)[C@@H]2O)[C@H](O)[C@@H](O)[C@@H]1O (stereo partly shown) [Laminaribose]
Activity (%) [2]: 34%

Molecule: CC(=O)NCCc1ccc(O)c(O)c1 [NADA]
Relative Activity (%) [1]: 9.08% | Specific Activity at 1 mM [S] ([1]; RfLacA, 1 mM substrate): 0.760 nmol·min/mg

Specific Activity at 1 mM [S] ([1]; RfLacA, 1 mM substrate): 0.190 nmol·min/mg | Relative Activity (%) [1, 7]: 2.27%
Molecule: NCCC(=O)NCCc1ccc(O)c(O)c1 [NBAD]

Molecule: Oc1ccccc1O [Pyrocatechol]
Relative Activity (%) [1]: 27.65% | Optimal pH ([1]; RfLacA, per substrate): 7.5 | Specific Activity at 1 mM [S] ([1]; RfLacA, 1 mM substrate): 2.315 nmol·min/mg

Optimal pH ([1]; RfLacA, per substrate): 7 | Specific Activity at 1 mM [S] ([1]; RfLacA, 1 mM substrate): 1.482 nmol·min/mg | Relative Activity (%) [1, 7]: 17.70%
Molecule: Oc1cccc(O)c1O [Pyrogallol]

Molecule: OCc1ccccc1O[C@@H]1O[C@H](CO)[C@@H](O)[C@H](O)[C@H]1O [Salicin]
Activity (%) [2]: 44%

Molecule: COc1cc(/C=C/C(=O)O)cc(OC)c1O [Sinapinic Acid]
Relative Activity (%) [1]: 40.40% | Optimal pH ([1]; RfLacA, per substrate): 7.5 | Specific Activity at 1 mM [S] ([1]; RfLacA, 1 mM substrate): 3.383 nmol·min/mg

Molecule: OC[C@H]1O[C@@](CO)(O[C@H]2O[C@H](CO)[C@@H](O)[C@H](O)[C@H]2O)[C@@H](O)[C@@H]1O [Sucrose]
Activity (%) [2]: 0%

Molecule: [Ca+2].[Cl-].[Cl-] [calcium chloride]
effect on Cell-1 CMC endoglucanase activity ([3]; incubations over a 5-day period at about 25° C.): slightly enhanced | effect on Cell-1 temperature stability [3]: stabilized/extended CMC hydrolysis activity over time | effect on Cell-1 temperature stability ([3]; listed as calcium): improves Cell-1 temperature stability

Molecule: O=[N+]([O-])c1cccc(O[C@H]2O[C@H](CO)[C@H](O)[C@H](O)[C@H]2O)c1 [mNP-αD-Galactopyranoside]
Activity (%) [4]: 0%

Molecule: O=[N+]([O-])c1ccccc1O[C@@H]1O[C@H](CO)[C@@H](O)[C@H](O)[C@H]1O [oNP-βD-Glucopyranoside]
Activity (%) [4]: 18%

Molecule: O=[N+]([O-])c1ccccc1O[C@@H]1O[C@H](CO)[C@@H](O)[C@H](O)[C@@H]1O [oNP-βD-Mannopyranoside]
Activity (%) [4]: 0%

Molecule: O=[N+]([O-])c1ccccc1O[C@@H]1OC[C@@H](O)[C@H](O)[C@H]1O [oNP-βD-Xylopyranoside]
Activity (%) [4]: 38%

Molecule: O=[N+]([O-])c1ccc(O[C@H]2O[C@H](CO)[C@H](O)[C@H](O)[C@H]2O)cc1 [pNP-αD-Galactopyranoside]
Activity (%) [4]: 0%

Molecule: O=[N+]([O-])c1ccc(O[C@@H]2O[C@H](CO)[C@@H](O[C@@H]3O[C@H](CO)[C@@H](O)[C@H](O)[C@H]3O)[C@H](O)[C@H]2O)cc1 [pNP-βD-Cellobioside, p-nitrophenyl-beta-D-cellobioside]
Activity (%) [4]: 60%

Molecule: O=[N+]([O-])c1ccc(O[C@@H]2O[C@H](CO)[C@@H](O[C@@H]3O[C@H](CO)[C@@H](O[C@@H]4O[C@H](CO)[C@@H](O[C@@H]5O[C@H](CO)[C@@H](O)[C@H](O)[C@H]5O)[C@H](O)[C@H]4O)[C@H](O)[C@H]3O)[C@H](O)[C@H]2O)cc1 [pNP-βD-Cellotetraoside, p-nitrophenyl-beta-D-cellotetraoside]
Activity (%) [4]: 73%

Molecule: O=[N+]([O-])c1ccc(O[C@@H]2O[C@H](CO)[C@@H](O[C@@H]3O[C@H](CO)[C@@H](O[C@@H]4O[C@H](CO)[C@@H](O)[C@H](O)[C@H]4O)[C@H](O)[C@H]3O)[C@H](O)[C@H]2O)cc1 [pNP-βD-Cellotrioside, p-nitrophenyl-beta-D-cellotrioside]
Activity (%) [4]: 98%

Molecule: C[C@H]1O[C@@H](Oc2ccc([N+](=O)[O-])cc2)[C@H](O)[C@@H](O)[C@H]1O [pNP-βD-Fucopyranoside]
Activity (%) [4]: 55%

Molecule: O=[N+]([O-])c1ccc(O[C@@H]2O[C@H](CO)[C@H](O)[C@H](O)[C@H]2O)cc1 [pNP-βD-Galactopyranoside]
Activity (%) [4]: 0%

Molecule: O=[N+]([O-])c1ccc(O[C@@H]2O[C@H](CO)[C@@H](O)[C@H](O)[C@H]2O)cc1 [pNP-βD-Glucopyranoside, p-nitrophenyl-beta-D-glucopyranoside]
Activity (%) [4]: 100%

Molecule: O=C(O)[C@H]1O[C@@H](Oc2ccc([N+](=O)[O-])cc2)[C@H](O)[C@@H](O)[C@@H]1O [pNP-βD-Glucuronide]
Activity (%) [4]: 0%

Molecule: O=[N+]([O-])c1ccc(O[C@@H]2OC[C@@H](O)[C@H](O)[C@H]2O)cc1 [pNP-βD-Xylopyranoside]
Activity (%) [4]: 0%

Molecule: O=[N+]([O-])c1ccc(O[C@H]2OC[C@H](O)[C@H](O)[C@H]2O)cc1 [pNP-βL-Arabinopyranoside]
Activity (%) [4]: 0%

Activity (%) ([2]; percent activity rankings based on Vmax, cellobiose = 100): 100%
Molecule: Cellobiose

B1: Cell-3: recombinant exoglucanase, amino acid sequence SEQ ID NO.: 4, investigated in unpurified form (protein)
chain: MVLCILLQWMQIGGKQKYPAFKPGAKYGRGYCDGQCPHDMKVSSGRANVDGWKPQDNDENSGNGKLGTCCWEMDIWEGNLVSQAYTVHAGSKSGQYECTGTQCGDTDSGERFKGTCDKDGCDFASYRWGATDYYGPGKTVDTKQPMTVVTQFIGDPLTEIKRVYVQGGKVINNSKTSNLGSVYDSLTEAFCDDTKQVTGDTNDFKAKGGMSGFSKNLDTPQVLVMSLWDDHTANMLWLDSTYPTDSTKPGAARGTCAVTSGDPKDVESKQANSQVVYSDIKFGPINSTYKAN
modifications: Reticulitermes flavipes; amino acid sequence exoglucanase (Cell-3)
activity toward pNPC relative to uninfected control larvae [5]: significantly higher activity | activity toward pNPC relative to uninfected control larvae ([5]; listed as recombinant Cell-3): higher exoglucanase (cellulase) activity than do uninfected homogenates | stability of recombinant protein ([5]; pNPC activity in filtrates, over time and after freeze-thaw cycles): reduced stability

B2: RfLacB: recombinant R. flavipes gut laccase isoform 2, clone Lac12, SEQ ID NO.: 12 (protein)
chain: VYRSDAYIMLPCVLLACAIGVASATSVLLNSYLQPNDDIDRNTYLLNAKSNNCARICNGTEAPKICYYQWTIENYVTLSEACDNCPLNVTACYNAQCITADGYERSILSVNRKLPGPSIEVCLRDRVIVDITNNMAGRTTSIHWHGVFQKGSQYMDGVPMVTQCTIHEGDTLRYDFIANNEGTHFWHSHDGLQKLDGVTGNLVVRVPKNFDPNGQLYDFDLPEHKIFISDWLHLSADDHFPGLRATNPGQDANSFLINGRGRTLIGTQSTNTPYAQINVQWGRRYRLRIVGSLCTVCPTQLTIDGHKITVIATDGNSVAPARVDSLIIYSGERYDVVLEATNTEGSYWIHLKGLVTCVGSRVYQLGVLQYENTTTNKLHALTPDPGYDGFPQPASYRVLNPENASCSIGSTGLCVTQLANSDPVPRDILTQLPDINYLLQFGFKIFDSRSFFKAYDRYFVSPFLDLVSSTVNNISSVSPPSPLLSQRGDVPDDVLCPTGADGLPQCPGGNSYCTCVHVIKIKLGALVQIILSDQTPKSGLNHPFHLHGHAFYVLGMGQYAAGQTAQDLLNSLKSNVSSVSPAPVLKDTIAVPSGGYAIIKFRPKNPGYWFLHCHFLYHVATGMSVVLQVGETSDYPPTPDGFPKCGSFTPPVNTN
modifications: Reticulitermes flavipes; amino acid sequence Laccase Lacc-12
Results of RfLacB isoform compared with RfLacA against all substrates [6]: statistically indistinguishable results to RfLacA | oxidation of ABTS and syringaldazine [6]: unable to oxidize
